The text below walks through data of PubChem BioAssay AID1963868 (Molecular Pharmacology Branch, DTP, NCI, 2024).

In the experiment the test system is KRAS PDC tumor spheroids (HUVEC+MSC), viability. The experiment can be described thus: Anticancer human tumor 254851-301-R-J1-PDC patient-derived colon carcinoma cell line growth inhibition [KRAS2]. The settings on record: for viability, T/C: stronger effect = lower value. From the text:
Multicellular complex tumor spheroid response to RAS pathway inhibitors in combination with a targeted agents in patient-derived cell lines with oncogenic KRAS variants from multiple cancer types
A high-throughput screen of multi-cell type tumor spheroids was designed to identify active combinations of targeted small molecules and KRAS pathway inhibitors. Complex spheroids include a stromal component modeled by human endothelial cells (HUVEC) and fibroblasts modeled by human mesenchymal stem cells (MSCs). The concentration ranges selected for each drug and investigational agent were based upon clinically achievable concentrations if the clinical Cmax of the agent was known.
Compounds. The drugs and investigational agents: BI-3406 (NSC825286), BAY-293 (NSC824723), batoprotafib (TNO155; NSC825523), sotorasib (AMG 510; NSC818433), MRTX1257 (NSC819558), elimusertib (BAY 1895344; NSC800525), molibresib (GSK525762; NSC774829), temuterkib (LY3214996; NSC803410), venetoclax (NSC766270), alisertib (NSC759677), olaparib (NSC753686), talazoparib (NSC767125), erdafitinib (NSC781556), ipatasertib (NSC767898), cabozantinib (NSC761068), nintedanib (NSC756659), abemaciclib (NSC768073), docetaxel (NSC628503), trametinib (NSC758246), and sapanisertib (NSC764658) were obtained from the National Cancer Institute (NCI) Developmental Therapeutics Program Chemical Repository. The FDA-approved anticancer drug set is available from the Developmental Therapeutics Program. […] The stock solutions were prepared in dimethyl sulfoxide (DMSO, Sigma-Aldrich, St. Louis, MO, cat. D2650) at 800-fold the tested concentration and stored at -70 degrees C prior to their use. All drugs and investigational agents were tested over a range starting from a high concentration at or near the clinical Cmax and decreasing in half-log increments. If the clinical Cmax for an agent had not been determined, the highest concentration tested was 10 microM.
Cell Culture. All cells were maintained in an incubator at 37 degrees C and 5% CO2 with 95% humidity. The PDC lines were cultured according to standard operating procedures established by the NCI PDMR (https://pdmr.cancer.gov/sops/default.htm). Briefly, all PDCs were thawed and cultured in Matrigel-coated flasks prepared with a working solution of 1X Ham's F-12 nutrient mix, without supplementation (Invitrogen, Waltham, MA, cat. 11765054), 100 U/mL penicillin-streptomycin (Invitrogen, cat. 15140122), and 2.5% Matrigel (Corning Inc., Corning, NY, cat. 354248) for the first three passages. All PDCs were cultured in complete DMEM/F-12 media containing advanced DMEM/F-12 (Invitrogen, cat. 12634028), 4.9% defined fetal bovine serum, heat inactivated (HyClone Laboratories Inc., Logan, UT, cat. SH30070.03HI), 389 ng/mL hydrocortisone (Sigma-Aldrich, cat. H4001), 9.7 ng/mL human EGF recombinant protein (Invitrogen, cat. PHG0313), 23.4 microg/mL adenine (Sigma-Aldrich, cat. A2786), 97.3 U/mL penicillin-streptomycin (Invitrogen, cat. 15140122), 1.9 mM L-glutamine (Invitrogen, cat. 25030081), and 9.7 microM Y-27632 dihydrochloride (Tocris Bioscience, Bristol, United Kingdom, cat. 1254). The PDCs were cultured in complete DMEM/F12 media without 9.7 microM Y-27632 dihydrochloride for at least two passages prior to the screen. The established cell line HOP-62 was cultured in RPMI 1640 medium, HEPES (Invitrogen, cat. 22400105) with 10% defined fetal bovine serum (HyClone Laboratories Inc., cat. SH30070.03) and 2 mM L-glutamine (Invitrogen, cat. 25030081). The pooled donor HUVEC were cultured in endothelial cell growth medium 2 (PromoCell, Heidelberg, Germany, cat. C-22011) and the hMSC were cultured in mesenchymal stem cell growth medium 2 (PromoCell, cat. C-28009). For all experiments, HUVEC and hMSC were used at passages </=5, while the malignant cell lines were used at passages </=15. […]

The mark [1] stands for this setting: compound alone, run of 07/12/2021.
Where [2] appears, read: compound alone, run of 07/19/2021.
Setting [3] is: compound alone, run of 07/26/2021.

Several values for one entry are separate records, joined by “and”; a condition that tells them apart may be missing. Equal values may be shown once. Where only a bound is given, the exact number is not on record here.
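Also: spheroids exposed to compounds for seven days before readout.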
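For viability, T/C in this document: 100% = DMSO vehicle control luminescence of the spheroids.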

As for `C=CC(=O)N1CCN(c2nc(=O)n(-c3c(C)ccnc3C(C)C)c3nc(-c4c(O)cccc4F)c(F)cc23)C(C)C1` (configuration not stated), for the setting “compound 0.1 µM”, the viability, T/C was 100% [middle of 17 runs]. The IC50 by setting is: under setting [1], over 10000 nM; under setting [2], over 10000 nM; under setting [3], over 10000 nM.
As to `CC(C)NCC(C(=O)N1CCN(c2ncnc3c2C(C)CC3O)CC1)c1ccc(Cl)cc1` (configuration not stated), the viability, T/C was 100% and 101% (3×) and 105% (compound 0.0316 µM); 103% [middle of 5 runs] (compound 0.1 µM); 99.5% [middle of 5 runs] (compound 0.316 µM); 104% [middle of 5 runs] (compound 1 µM); 98.9% [middle of 5 runs] (compound 10 µM). Moreover, the IC50 (curve of compound) is over 10000 nM.
Turning to `CNCc1ccccc1-c1csc(C(C)Nc2nc(C)nc3cc(OC)c(OC)cc23)c1` (configuration not stated), the viability, T/C is 95.8% [middle of 17 runs] (compound 0.1 µM), 99.9% [middle of 16 runs] (compound 0.316 µM) and 0.17% [middle of 15 runs] (compound 10 µM). Moreover, the IC50 was 4.73 µM [middle of 6 runs] under setting [1], 4.58 µM [middle of 5 runs] under setting [2] and 2.42 µM [middle of 6 runs] under setting [3].
For the compound `COC(=O)c1ccc2c(C(=Nc3ccc(N(C)C(=O)CN4CCN(C)CC4)cc3)c3ccccc3)c(O)[nH]c2c1`, the viability, T/C is, setting by setting: (compound 0.0316 µM) 104% [middle of 5 runs]; (compound 0.1 µM) 99.1% [middle of 5 runs]; (compound 0.316 µM) 95.2% [middle of 5 runs]; (compound 1 µM) 97.2% [middle of 5 runs]; (compound 3.16 µM) 86.5% [middle of 5 runs]; (compound 10 µM) 95.5% [middle of 5 runs]. The IC50 (curve of compound) is over 10000 nM.
Take `COc1cc2nc(C)nc(NC(C)c3cc(N)cc(C(F)(F)F)c3)c2cc1OC1CCOC1` (configuration not stated): for the setting “compound 1 µM”, the viability, T/C was 92.5% [middle of 17 runs]. Also, the IC50 by setting is: under setting [1], over 10000 nM; under setting [2], over 10000 nM; under setting [3], over 10000 nM.
For `COc1cc2nccc(Oc3ccc(NC(=O)C4(C(=O)Nc5ccc(F)cc5)CC4)cc3)c2cc1OC`, the viability, T/C (compound 0.0316 µM) was 103% [middle of 5 runs]; the viability, T/C (compound 0.1 µM) is 107% [middle of 5 runs]; the viability, T/C (compound 0.316 µM) is 105% [middle of 5 runs]; the viability, T/C (compound 1 µM) was 106% [middle of 5 runs]. For the same compound, for the setting “curve of compound”, the IC50 was over 10000 nM.
For `CC(=O)OC12COC1CC(O)C1(C)C(=O)C(O)C3=C(C)C(OC(=O)C(O)C(NC(=O)OC(C)(C)C)c4ccccc4)CC(O)(C(OC(=O)c4ccccc4)C21)C3(C)C` (configuration not stated) + C=CC(=O)N1CCN(c2nc(=O)n(-c3c(C)ccnc3C(C)C)c3nc(-c4c(O)cccc4F)c(F)cc23)C(C)C1, the IC50 reads like this: (curve of first compound, second compound 0.1 µM) 259 nM; (curve of first compound, second compound 0.316 µM) 243 nM; (curve of first compound, second compound 1 µM) 244 nM; (curve of first compound, second compound 3.16 µM) 253 nM; (curve of first compound, second compound 10 µM) 208 nM. Besides, the viability, T/C runs as follows: (second compound 0.1 µM, first compound 0.01 µM) 104%; (second compound 0.1 µM, first compound 0.0316 µM) 94.6%; (second compound 0.1 µM, first compound 0.1 µM) 74.4%; (second compound 0.1 µM, first compound 0.316 µM) 44.6%; (second compound 0.1 µM, first compound 1 µM) 30.5%; (second compound 0.1 µM, first compound 3.16 µM) 26.7%. In addition, the viability, T/C (second compound 0.316 µM, first compound 0.01 µM) is 90.9%; the viability, T/C (second compound 0.316 µM, first compound 0.0316 µM) was 98%; the viability, T/C (second compound 0.316 µM, first compound 0.1 µM) is 70.8%; the viability, T/C (second compound 0.316 µM, first compound 0.316 µM) was 44.9%; the viability, T/C (second compound 0.316 µM, first compound 1 µM) was 29.8%; the viability, T/C (second compound 0.316 µM, first compound 3.16 µM) is 27.4%. Moreover, the viability, T/C reads like this: (second compound 1 µM, first compound 0.01 µM) 88.1%; (second compound 1 µM, first compound 0.0316 µM) 84.5%; (second compound 1 µM, first compound 0.1 µM) 68.2%; (second compound 1 µM, first compound 0.316 µM) 45%; (second compound 1 µM, first compound 1 µM) 30%; (second compound 1 µM, first compound 3.16 µM) 26.5%. In addition, the viability, T/C (second compound 3.16 µM, first compound 0.01 µM) was 105%; the viability, T/C (second compound 3.16 µM, first compound 0.0316 µM) is 93.5%; the viability, T/C (second compound 3.16 µM, first compound 0.1 µM) is 70.2%; the viability, T/C (second compound 3.16 µM, first compound 0.316 µM) is 45.7%; the viability, T/C (second compound 3.16 µM, first compound 1 µM) was 30.6%; the viability, T/C (second compound 3.16 µM, first compound 3.16 µM) was 27.5%. Moreover, the viability, T/C by setting is: (second compound 10 µM, first compound 0.01 µM) 93.5%; (second compound 10 µM, first compound 0.0316 µM) 87.1%; (second compound 10 µM, first compound 0.1 µM) 70.9%; (second compound 10 µM, first compound 0.316 µM) 38.1%; (second compound 10 µM, first compound 1 µM) 26.1%; (second compound 10 µM, first compound 3.16 µM) 24.1%.

What is called viability, T/C is the ratio of treated to control. One may read the IC50 as the concentration at which inhibition is half-maximal.
